Measured values: US9695155B2, “Herbicidal substituted pyrimidinyloxy benzene compounds” (E. I. DU PONT DE NEMOURS AND COMPANY, priority 2013, dated 2017)

What was measured:
Test in all cases: Test C preemergence
blackgrass = type: in vivo, Alopecurus myosuroides; conditions: for Blackgrass plant response rating: preemergence; for Plant response rating, Blackgrass: Preemergence, 31 g ai/ha, scale 0 to 100, 0 no effect, 100 complete control
Summary of the method: (§1)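 Sown in loam/sand → sprayed pre-emergence; or grown to 1–4 leaves in peat mix → sprayed post-emergence. Same solvent/surfactant formulation both ways. Greenhouse 13–15 d. Score 0–100 visual.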

wheat, winter = type: in vivo, Triticum aestivum; conditions: preemergence
Summary of the method: as §1

large (Lg) crabgrass = type: in vivo, Digitaria sanguinalis; conditions: for Crabgrass, Large plant response rating: preemergence; for Plant response rating, Crabgrass, Large: Preemergence, 31 g ai/ha, scale 0 to 100, 0 no effect, 100 complete control
Summary of the method: as §1

giant foxtail = type: in vivo, Setaria faberii; conditions: for Foxtail, Giant plant response rating: preemergence; for Plant response rating, Foxtail, Giant: Preemergence, 31 g ai/ha, scale 0 to 100, 0 no effect, 100 complete control
Summary of the method: as §1

lambsquarters = type: in vivo, Chenopodium album; conditions: preemergence
Summary of the method: as §1

yellow nutsedge = type: in vivo, Cyperus esculentus; conditions: preemergence
Summary of the method: as §1

pigweed = type: in vivo, Amaranthus retroflexus; conditions: preemergence
Summary of the method: as §1

ragweed = type: in vivo, Ambrosia elatior; conditions: preemergence
Summary of the method: as §1

soybean = type: in vivo, Glycine max; conditions: preemergence
Summary of the method: as §1

barnyardgrass = type: in vivo, Echinochloa crus-galli; conditions: for Barnyardgrass plant response rating: preemergence; for Plant response rating, Barnyardgrass: Preemergence, 31 g ai/ha, scale 0 to 100, 0 no effect, 100 complete control
Summary of the method: as §1

oilseed rape = type: in vivo, Brassica napus; conditions: preemergence
Summary of the method: as §1

waterhemp = type: in vivo, Amaranthus rudis; conditions: preemergence
Summary of the method: as §1

velvetleaf = type: in vivo, Abutilon theophrasti; conditions: preemergence
Summary of the method: as §1

[1] = 16 g ai/ha, scale 0 to 100 (0 no effect, 100 complete control)
[2] = 62 g ai/ha, scale 0 (no effect) to 100 (complete control)
[3] = 125 g ai/ha, scale 0 (no effect) to 100 (complete control)

## FC(F)c1cccc(Oc2ncc(Cl)cn2)c1-n1cc(C(F)(F)F)cn1 [Compound 170]
blackgrass; [1]
  Blackgrass plant response rating: 0
blackgrass; [2]
  Blackgrass plant response rating: 90
blackgrass; [3]
  Blackgrass plant response rating: 90
blackgrass
  Plant response rating, Blackgrass: 80
wheat, winter; [1]
  Wheat plant response rating: 0
wheat, winter; [2]
  Wheat plant response rating: 20
wheat, winter; [3]
  Wheat plant response rating: 60
Large (Lg) crabgrass; [1]
  Crabgrass, Large plant response rating: 25
Large (Lg) crabgrass; [2]
  Crabgrass, Large plant response rating: 100
Large (Lg) crabgrass; [3]
  Crabgrass, Large plant response rating: 100
Large (Lg) crabgrass
  Plant response rating, Crabgrass, Large: 95
Giant foxtail; [1]
  Foxtail, Giant plant response rating: 80
Giant foxtail; [2]
  Foxtail, Giant plant response rating: 98
Giant foxtail; [3]
  Foxtail, Giant plant response rating: 100
Giant foxtail
  Plant response rating, Foxtail, Giant: 85
lambsquarters; [1]
  Lambsquarters plant response rating: 90
lambsquarters; [2]
  Lambsquarters plant response rating: 100
lambsquarters; [3]
  Lambsquarters plant response rating: 100
Yellow nutsedge; [1]
  Nutsedge, Yellow plant response rating: 0
Yellow nutsedge; [2]
  Nutsedge, Yellow plant response rating: 15
Yellow nutsedge; [3]
  Nutsedge, Yellow plant response rating: 55
pigweed; [1]
  Pigweed plant response rating: 100
pigweed; [2]
  Pigweed plant response rating: 100
pigweed; [3]
  Pigweed plant response rating: 100
ragweed; [1]
  Ragweed plant response rating: 85
ragweed; [2]
  Ragweed plant response rating: 55
ragweed; [3]
  Ragweed plant response rating: 65
soybean; [1]
  Soybean plant response rating: 5
soybean; [2]
  Soybean plant response rating: 45
soybean; [3]
  Soybean plant response rating: 55
barnyardgrass; [1]
  Barnyardgrass plant response rating: 10
barnyardgrass; [2]
  Barnyardgrass plant response rating: 100
barnyardgrass; [3]
  Barnyardgrass plant response rating: 100
barnyardgrass
  Plant response rating, Barnyardgrass: 55
Oilseed rape; [1]
  Oilseed Rape plant response rating: 70
Oilseed rape; [2]
  Oilseed Rape plant response rating: 98
Oilseed rape; [3]
  Oilseed Rape plant response rating: 95
waterhemp; [1]
  Waterhemp plant response rating: 100
waterhemp; [2]
  Waterhemp plant response rating: 100
waterhemp; [3]
  Waterhemp plant response rating: 100
velvetleaf; [1]
  Velvetleaf plant response rating: 25
velvetleaf; [2]
  Velvetleaf plant response rating: 80
velvetleaf; [3]
  Velvetleaf plant response rating: 100

## Fc1cnc(Oc2cccc(C(F)F)c2-n2cc(C(F)(F)F)cn2)nc1 [Compound 164]
blackgrass; [1]
  Blackgrass plant response rating: 0
blackgrass; [2]
  Blackgrass plant response rating: 90
blackgrass; [3]
  Blackgrass plant response rating: 90
blackgrass
  Plant response rating, Blackgrass: 50
wheat, winter; [1]
  Wheat plant response rating: 0
wheat, winter; [2]
  Wheat plant response rating: 30
wheat, winter; [3]
  Wheat plant response rating: 35
Large (Lg) crabgrass; [1]
  Crabgrass, Large plant response rating: 75
Large (Lg) crabgrass; [2]
  Crabgrass, Large plant response rating: 100
Large (Lg) crabgrass; [3]
  Crabgrass, Large plant response rating: 100
Large (Lg) crabgrass
  Plant response rating, Crabgrass, Large: 85
Giant foxtail; [1]
  Foxtail, Giant plant response rating: 40
Giant foxtail; [2]
  Foxtail, Giant plant response rating: 100
Giant foxtail; [3]
  Foxtail, Giant plant response rating: 100
Giant foxtail
  Plant response rating, Foxtail, Giant: 95
lambsquarters; [1]
  Lambsquarters plant response rating: 70
lambsquarters; [2]
  Lambsquarters plant response rating: 100
lambsquarters; [3]
  Lambsquarters plant response rating: 98
Yellow nutsedge; [1]
  Nutsedge, Yellow plant response rating: 0
Yellow nutsedge; [2]
  Nutsedge, Yellow plant response rating: 20
Yellow nutsedge; [3]
  Nutsedge, Yellow plant response rating: 25
pigweed; [1]
  Pigweed plant response rating: 98
pigweed; [2]
  Pigweed plant response rating: 100
pigweed; [3]
  Pigweed plant response rating: 98
ragweed; [1]
  Ragweed plant response rating: 0
ragweed; [2]
  Ragweed plant response rating: 75
ragweed; [3]
  Ragweed plant response rating: 85
soybean; [1]
  Soybean plant response rating: 0
soybean; [2]
  Soybean plant response rating: 65
soybean; [3]
  Soybean plant response rating: 95
barnyardgrass; [1]
  Barnyardgrass plant response rating: 15
barnyardgrass; [2]
  Barnyardgrass plant response rating: 98
barnyardgrass; [3]
  Barnyardgrass plant response rating: 100
barnyardgrass
  Plant response rating, Barnyardgrass: 70
Oilseed rape; [1]
  Oilseed Rape plant response rating: 70
Oilseed rape; [2]
  Oilseed Rape plant response rating: 100
Oilseed rape; [3]
  Oilseed Rape plant response rating: 100
waterhemp; [1]
  Waterhemp plant response rating: 85
waterhemp; [2]
  Waterhemp plant response rating: 100
waterhemp; [3]
  Waterhemp plant response rating: 100
velvetleaf; [1]
  Velvetleaf plant response rating: 50
velvetleaf; [2]
  Velvetleaf plant response rating: 100
velvetleaf; [3]
  Velvetleaf plant response rating: 100
